By EC50 is commonly meant the concentration at which the effect is half-maximal. What is called melting point is the temperature, or range, at which the solid turns liquid.

Among the data in US20110065734A1, “NOVEL BIFUNCTIONAL COMPOUNDS WHICH INHIBIT PROTEIN KINASES AND HISTONE DEACETYLASES” (4SC AG, priority 2007, published 2011) are IC50, EC50 and melting point values, retold here.

One series has as its target T1, Protein kinase A (PKA) (Homo sapiens, UniProt P17612).
T1 construct: purchased InvitroGen/Panvera, Carlsbad/USA
Description: Biochemical flash-plate based kinase assay, PKA. The text has this: (§1) Active kinase proteins were either obtained from commercial suppliers (Abl, PDGF-Rβ ProQinase, Freiburg/Germany; AblT^315I: Millipore/Upstate, Billerica/USA; PKA: InvitroGen/Panvera, Carlsbad/USA) or prepared in-house (KDR, c-terminal kinase domain AA790-1356, HER2 c-terminal kinase domain, EGFR/HER1 C-terminal kinase domain). As substrates, poly-AGKY for Abl, AblT^315I and PDGF-Rβ (#P-1152 Sigma, Munich/Germany), poly-GluTyr for KDR, HER2 and EGFR/HER1 (#P-0275, Sigma, Munich/Germany) or a PKA substrate peptide for PKA (#12-394, Millipore/Upstate, Billerica/USA) were used. Into each well of a 96-well flashplate (#SMP-200 in the case of Abl, Abl T^315I, PDGF-Rβ, EGFR, HER2 and KDR, #SMP-103 in the case of PKA; Perkin Elmer, Waltham/USA) kinase protein was diluted into kinase assay buffer (50 mM HEPES pH 7.5, 3 mM MgCl2, 3 mM MnCl2, 1 mM DTT, 3 μM sodium orthovanadate, 5 μg/ml PEG 8000) containing the appropriate substrate (final volume 89 μl). DMSO vehicle or compounds are added as 1 μl/well prior to the initiation of the kinase reaction by 10 μl 1 mM [^33P]-γATP (4×10^5 cpm). Reactions were allowed to proceed for a time predetermined to be linear on a time versus phosphorylation plot (30 min for PKA, otherwise 80 min) and terminated with the addition of an equal volume of phosphoric acid (2% H3PO4 for 5 minutes). Plates were washed three times with 0.9% w/v NaCl and quantitated by liquid scintillation counting.

Another series concerns the target T2, EGFR/HER1 (Homo sapiens, UniProt P00533).
T2 construct: EGFR/HER1 C-terminal kinase domain; made in house
Description: Biochemical flash-plate based kinase assay, EGFR/HER1. Particulars: only a range over the listed compounds is given; read-out: EGFR/HER1 inhibition IC50.
From the text: as §1

Series [1] deals with histone H3 hyperacetylation in HeLa cervical carcinoma cells. Description: Cellular histone H3 hyperacetylation assay. Format: cell-based. Particulars: Homo sapiens, 24 h, only a range over the listed compounds is given, read-out: Induction of histone H3 hyperacetylation in HeLa cervical carcinoma cells EC50. The text has this: To assess the cellular efficacy of a histone deacetylase inhibitor in vitro, an assay was set up in black clear-bottom 96-well plates and optimized for use on the Cellomics “ArrayScan II” platform for a quantitative calculation of histone acetylation. The protocol uses a polyclonal rabbit antibody, specifically binding to acetylated lysine 1-20 of human histone H3 on fixed cells with an Alexa Fluor 488 labeled goat anti rabbit-IgG used for counterstaining (Beckers et al. Int J. Cancer 121, 1138, 2007).
5×10^3 HeLa cervical carcinoma cells/well (ATCC. CCL-2) in 200 μl Dulbecco rs modified Eagle's medium (DMEM) containing 10% fetal calf serum are seeded at day 1 in Packard view plates and incubated for 24 h under standard cell culture conditions. On day 2, 1 μl test compound (200× final concentration) is added and incubation continued for further 24 h. On day 3, the culture medium is discarded and attached cells fixed for 15 min at room temperature by addition of 100 μl fixation buffer (3.7% v:v formaldehyde in phosphate buffered saline/PBS). After discarding the fixation buffer and one wash with blocking solution (1% BSA, 0.3% Tween 20 in PBS), cells are permeabilized at room temperature by addition of 100 μl/well permeabilization buffer (30.8 mM NaCl, 0.54 mM Na2HPO4, 0.31 mM KH2PO4, 0.1% v:v Triton X-100) for 15 min at room temperature. After discarding the permeabilization buffer and washing twice with 100 μl/well blocking solution at room temperature, the 1st antibody (anti-K^1-20 histone H3 antibody, Calbiochem No. 382158) in blocking solution (50 μl/well) is added. After incubation for 1 h at room temperature, the wells are washed twice at room temperature with 100 μl/well blocking solution before addition of the 2nd antibody (goat-anti-rabbit Alexa Fluor 488; MoBiTec No. A-11008) in blocking solution (50 μl/well). After further incubation for 1 h at room temperature, wells are washed twice with 100 μl/well blocking solution at room temperature. Finally, 100 μl/well PBS are added and image analysis performed on the Cellomics “ArrayScan II” platform. For EC50 determination, the percentage of positive cells showing nuclear fluorescence is determined and EC50 calculation done from concentration-effect curves by means of non-linear regression. For calibration, a positive (reference HDAC inhibitors like SAHA or NVP LBH-589) and a negative control were included.

Series [2] concerns Cal27 head and neck cancer cell line. Put plainly: Cellular cytotoxicity assay (Alamar Blue), Cal27. The class given is cell-based. Particulars: Homo sapiens, CAL-27; 72 h; only a range over the listed compounds is given; read-out: Cytotoxicity towards Cal27 cell line IC50. How it is done:
(§2) The anti-proliferative activity of the chimeric HDAC and protein kinase inhibitory chimeric compounds of the present invention was evaluated using HeLa cervical carcinoma, A549 NSCLC, SKOV3 ovarian carcinoma, Cal27 head and neck cancer, K562 chronic myeloid leukemia (CML) and EOL1 acute hypereosinophilic myeloid leukemia, cell lines. For quantification of cellular proliferation/living cells the Alamar Blue (Resazurin) cell viability assay was applied (O'Brien et al. Eur Biochem. 267, 5421-5426, 2000). In this assay Resazurin is reduced to the fluorescent resorufin by cellular dehydrogenase activity, correlating with viable, proliferating cells. The examples were dissolved as 20 mM solutions in dimethylsulfoxide (DMSO) and subsequently diluted in semi-logarithmic steps. Cell lines were seeded at respective density into 96 well flat bottom plates in a volume of 200 μl per well. 24 h after seeding 1 μl each of the compound dilutions were added into each well of the 96 well plate. Each compound dilution was tested as quadruplicates. Wells containing untreated control cells were filled with […] DMEM medium containing 0.5% v:v DMSO. The cells were then incubated with the substances for 72 h at 37° C. in a humidified atmosphere containing 5% carbon dioxide. To determine the viability of the cells, 20 μl of an Resazurin solution (Sigma; 90 mg/l) were added. After 4 h incubation at 37° C. the fluorescence was measured at an extinction of 544 nm and an emission of 590 nm. For the calculation of the cell viability the emission value from untreated cells was set as 100% viability and the emission rates of treated cells were set in relation to the values of untreated cells. Viabilities were expressed as % values. The corresponding IC50 values of the compounds for cytotoxic activity are determined from the concentration-effect curves by means of non-linear regression.
On the technique in general: The colour change of resazurin is a common sign of viable cells or microbes.

The target in a further series is T3, Bcr-abl (wt) (Homo sapiens, UniProt P00519).
T3 construct: purchased ProQinase, Freiburg/Germany
T3 sequence (P00519 118-553 limits assumed): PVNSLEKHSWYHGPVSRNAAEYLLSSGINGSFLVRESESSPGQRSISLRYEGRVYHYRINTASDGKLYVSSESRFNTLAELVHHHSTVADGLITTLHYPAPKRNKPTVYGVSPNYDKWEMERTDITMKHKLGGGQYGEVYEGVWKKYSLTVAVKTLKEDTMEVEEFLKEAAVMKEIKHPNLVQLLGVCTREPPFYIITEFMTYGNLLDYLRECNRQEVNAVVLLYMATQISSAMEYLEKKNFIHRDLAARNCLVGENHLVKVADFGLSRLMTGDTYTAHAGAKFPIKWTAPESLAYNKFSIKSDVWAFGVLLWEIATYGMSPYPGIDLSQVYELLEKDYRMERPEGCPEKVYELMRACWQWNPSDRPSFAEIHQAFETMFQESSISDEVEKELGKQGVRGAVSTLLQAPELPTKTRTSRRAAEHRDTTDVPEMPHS
Description: Biochemical flash-plate based kinase assay, Bcr-abl (wt). Particulars: only a range over the listed compounds is given; read-out: Bcr-abl (wt) inhibition IC50.
From the text: as §1

Another series deals with T4, Bcr-abl T^315I (Homo sapiens, UniProt P00519, T315I).
T4 construct: purchased Millipore/Upstate, Billerica/USA
Put plainly: Biochemical flash-plate based kinase assay, Bcr-abl T315I. Particulars: only a range over the listed compounds is given; read-out: Bcr-abl T^315I inhibition IC50.
From the text: as §1

The target of the next series is T5, PDGFRβ (Homo sapiens, UniProt P09619).
T5 construct: purchased ProQinase, Freiburg/Germany
Put plainly: Biochemical flash-plate based kinase assay, PDGFRβ. Particulars: only a range over the listed compounds is given; read-out: PDGFRβ inhibition IC50.
From the text: as §1

Another series concerns A549 NSCLC cell line. Description: Cellular cytotoxicity assay (Alamar Blue), A549. Format: cell-based. Particulars: Homo sapiens. How it is done: as §2
Series [3] deals with HeLa cervical carcinoma cell line. Put plainly: Cellular cytotoxicity assay (Alamar Blue), HeLa. Format: cell-based. Particulars: Homo sapiens, 72 h, only a range over the listed compounds is given, read-out: Cytotoxicity towards HeLa cervical cell line IC50. Here is the method: as §2
The subject of series [4] is K562 chronic myeloid leukemia (CML) cell line. Put plainly: Cellular cytotoxicity assay (Alamar Blue), K562. The class given is cell-based. Particulars: Homo sapiens, 72 h, only a range over the listed compounds is given, read-out: Cytotoxicity towards K562 CML cell line IC50. Here is the method: as §2
Series [5] concerns the target T6, recombinant HDAC1 isolated from HEK293 cells with heterologous HDAC1 expression (Homo sapiens, UniProt Q13547).
T6 construct: made in house
Put plainly: Fluorimetric rHDAC1 activity assay. Particulars: only a range of IC50 over the compounds given; read-out: rHDAC1 inhibitory activity IC50. The class given is biochemical.

Series [6] deals with EOL1 acute hypereosinophilic myeloid leukemia cell line. Put plainly: Cellular cytotoxicity assay (Alamar Blue), EOL1. Particulars: Homo sapiens, 72 h, only a range over the listed compounds is given, read-out: Cytotoxicity towards EOL1 cell line IC50. Format: cell-based. Here is the method: as §2
[7] abbreviates: A549, 72 h, only a range over the listed compounds is given, read-out: Cytotoxicity towards A549 NSCLC cell line IC50.

Where a name gives a salt, the structure may show the parent alone. Read-outs that look alike come from different tables or passages of the source.

T6 sequence (Q13547 whole entry): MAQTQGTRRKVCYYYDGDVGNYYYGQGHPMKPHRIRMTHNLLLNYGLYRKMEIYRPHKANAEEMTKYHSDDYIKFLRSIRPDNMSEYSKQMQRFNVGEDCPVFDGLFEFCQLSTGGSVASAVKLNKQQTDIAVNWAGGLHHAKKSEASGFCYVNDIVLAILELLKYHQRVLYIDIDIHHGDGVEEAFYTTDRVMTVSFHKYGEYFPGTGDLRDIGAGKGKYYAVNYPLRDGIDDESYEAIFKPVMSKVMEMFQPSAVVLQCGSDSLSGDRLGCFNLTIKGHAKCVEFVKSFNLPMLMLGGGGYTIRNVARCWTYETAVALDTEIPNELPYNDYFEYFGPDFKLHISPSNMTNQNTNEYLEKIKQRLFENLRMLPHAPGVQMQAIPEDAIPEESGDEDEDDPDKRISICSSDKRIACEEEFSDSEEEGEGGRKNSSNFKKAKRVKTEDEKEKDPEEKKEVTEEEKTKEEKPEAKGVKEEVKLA
T2 sequence (P00533 712-979 limits assumed): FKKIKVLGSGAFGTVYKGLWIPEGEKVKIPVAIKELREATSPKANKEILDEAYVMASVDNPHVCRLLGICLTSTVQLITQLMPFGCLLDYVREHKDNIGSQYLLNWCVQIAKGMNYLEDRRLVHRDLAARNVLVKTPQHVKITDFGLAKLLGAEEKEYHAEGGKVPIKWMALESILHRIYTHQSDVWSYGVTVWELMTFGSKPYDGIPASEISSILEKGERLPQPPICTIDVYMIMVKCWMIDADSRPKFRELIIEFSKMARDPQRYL
T5 sequence (P09619 33-1106): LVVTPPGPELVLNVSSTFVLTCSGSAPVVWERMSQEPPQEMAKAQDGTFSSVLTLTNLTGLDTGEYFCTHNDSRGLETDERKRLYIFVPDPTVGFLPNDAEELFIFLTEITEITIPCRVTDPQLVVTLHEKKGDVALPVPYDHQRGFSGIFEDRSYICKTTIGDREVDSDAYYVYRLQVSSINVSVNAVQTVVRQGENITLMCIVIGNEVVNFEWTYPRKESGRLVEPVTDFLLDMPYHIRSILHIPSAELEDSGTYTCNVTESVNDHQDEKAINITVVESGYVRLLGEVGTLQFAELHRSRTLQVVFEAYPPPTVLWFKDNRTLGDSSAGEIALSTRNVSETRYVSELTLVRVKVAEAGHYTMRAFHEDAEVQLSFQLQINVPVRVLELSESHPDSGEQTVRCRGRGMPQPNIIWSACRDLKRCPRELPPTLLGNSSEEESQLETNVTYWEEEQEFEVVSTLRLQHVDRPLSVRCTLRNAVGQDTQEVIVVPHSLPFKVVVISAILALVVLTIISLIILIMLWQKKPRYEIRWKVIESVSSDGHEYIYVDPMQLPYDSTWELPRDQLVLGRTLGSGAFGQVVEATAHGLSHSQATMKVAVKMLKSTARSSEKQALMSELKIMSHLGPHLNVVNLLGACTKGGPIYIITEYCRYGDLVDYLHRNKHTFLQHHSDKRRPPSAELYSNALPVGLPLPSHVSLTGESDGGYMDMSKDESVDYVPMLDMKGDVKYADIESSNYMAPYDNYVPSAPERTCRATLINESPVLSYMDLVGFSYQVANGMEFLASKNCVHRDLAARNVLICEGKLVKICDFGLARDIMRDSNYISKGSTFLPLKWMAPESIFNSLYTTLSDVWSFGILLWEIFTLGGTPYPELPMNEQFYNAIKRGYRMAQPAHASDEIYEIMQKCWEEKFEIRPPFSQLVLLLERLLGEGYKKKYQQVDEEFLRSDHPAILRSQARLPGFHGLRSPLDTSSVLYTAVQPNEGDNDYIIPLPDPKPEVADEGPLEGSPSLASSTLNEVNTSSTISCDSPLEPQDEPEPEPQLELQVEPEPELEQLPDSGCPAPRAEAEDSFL

At Protein kinase A (PKA), `O=C(/C=C/c1ccc(-c2ccc3ncnc(Nc4ccc(OCc5cccc(F)c5)c(Cl)c4)c3c2)s1)NO` [[7], E-3-(5-{4-[3-Chloro-4-(3-fluorobenzyloxy)-phenylamino]quinazolin-6-yl}thiophene-2-yl)-N-hydroxy-acrylamide hydrochloride monohydrate] yielded an IC50 of 35 µM.

In the case of `O=C(NO)c1ccc(-c2ccc3ncnc(Nc4ccc(OCc5cccc(F)c5)c(Cl)c4)c3c2)s1` [[4], 5-{4-[3-Chloro-4-(3-fluorobenzyloxy)phenyl-amino]quinazolin-6-yl}thiophene-2-carboxylic acid hydroxyamide hydrochloride dihydrate], the IC50 on EGFR/HER1 lay in the range of 0.0022 to 0.15 µM. Further, the EC50 in series [1] is no less than 3.65 µM.

For `C#Cc1cccc(Nc2ncnc3ccc(NC(=O)c4ccc(C(=O)Nc5ccccc5N)nc4)cc23)c1` [[36], N^2-(2-aminophenyl)-N^5-(4-(3-ethynylphenylamino)-quinazolin-6-yl)pyridine-2,5-dicarboxamide], the melting point lay within 213 to 216 °C. For the same compound, the IC50 at EGFR/HER1 lay within 0.0022 to 0.15 µM. In [2], the IC50 was in the range of 0.16 to 8 µM.

For the compound `Cc1ccc(NCc2ccc(C(=O)Nc3ccccc3N)cc2)cc1Nc1nccc(-c2cccnc2)n1` [[15], N-(2-Amino-phenyl)-4-{[4-methyl-3-(4-pyridin-3-yl-pyrimidin-2-ylamino)-phenylamino]-methyl}-benzamide], the IC50 at Bcr-abl (wt) is 2 to 39 µM; on Bcr-abl T^315I, 1 to 34 µM; on PDGFRβ, 2.1 to 71 µM; in the series on A549 NSCLC cell line (setting [7]), no less than 2.95e-06 M; in series [3], no less than 1.15 µM; in [4] it was 0.49 to 4.07 µM.

Take `O=C(/C=C/c1ccc(-c2ccc3ncnc(Nc4ccc(OCc5cccc(F)c5)c(Cl)c4)c3c2)o1)NO` [[2], E-3-(5-{4-[3-Chloro-4-(3-fluorobenzyloxy)-phenylamino]quinazolin-6-yl}furan-2-yl)-N-hydroxy-acrylamide hydrochloride monohydrate]: the IC50 in series [5] was no less than 0.0353 µM; on EGFR/HER1, 0.0022 to 0.15 µM; in the series with A549 NSCLC cell line (A549, 72 h, read-out: Cytotoxicity towards A549 NSCLC cell line IC50 (M)) it was no less than 1.1e-06 M. Moreover, the half-maximal effective concentration (EC50) in series [1] was no less than 3.65 µM.

On to `Cc1ccc(NC(=O)c2ccc(/C=C/C(=O)NO)s2)cc1Nc1nc(-c2cccnc2)cs1` [[33], (E)-5-(3-(hydroxyamino)-3-oxoprop-1-enyl)-N-(4-methyl-3-(4-(pyridin-3-yl)thiazol-2-ylamino)phenyl)thiophene-2-carboxamide], for which the melting point came out at 241.6 °C. In addition, the IC50 on Bcr-abl (wt) lay within 2 to 39 µM. Also, the IC50 at Bcr-abl T^315I was 1 to 34 µM. In addition, the IC50 in the series with A549 NSCLC cell line (setting [7]) was no less than 2.95e-06 M.

Regarding `Cc1ccc(NC(=O)c2ccc(/C=C/C(=O)NO)cc2)cc1Nc1nc(-c2cccnc2)cs1` [[19], (E)-4-(3-(hydroxyamino)-3-oxoprop-1-enyl)-N-(4-methyl-3-(4-(pyridin-3-yl)thiazol-2-ylamino)phenyl)benzamide], the IC50 fell in the range of 0.077 to 1.4 µM in [5]; 2 to 39 µM at Bcr-abl (wt); 1 to 34 µM on Bcr-abl T^315I; 2.1 to 71 µM at PDGFRβ; 0.003 to 0.78 µM in [6].

As to `CN(C(=O)c1ccc(C(=O)Nc2ccccc2N)cc1)c1ccc(Cl)c(Nc2nccc(-c3cccnc3)n2)c1` [[35], N-(2-Amino-phenyl)-N′-[4-chloro-3-(4-pyridin-3-yl-pyrimidin-2-ylamino)-phenyl]-N′-methyl-terephthalamide], the IC50 in series [5] was 0.077 to 1.4 µM; in [4] it was 0.49 to 4.07 µM; in series [6] it was 0.003 to 0.78 µM.
